Laboratory results taken from patent US20250136579A1, “SALTS AND FREE BASES OF BIFUNCTIONAL COMPOUND AND POLYMORPH FORMS THEREOF” (NURIX THERAPEUTICS, INC., priority 2023, published 2025).
Entries after “also recorded” stand apart in the source; their conditions may differ. Structures can show the parent of a compound that is named as a salt.

Key:
Assay type in all cases: physicochemical
[1] = heat stress on a TGA, recovered material analyzed by XRPD; conditions: held ~1 minute; for Post-XRPD (100° C.): heated on TGA to 100° C.; for Post-XRPD (150° C.): heated on TGA to 150° C.
Description: Samples of each form were heat stressed on a TGA. Samples were heated to the specified temperature and held at that temperature for approximately 1 minute. The material was then recovered from the TGA and analyzed by XRPD.

[2] = stressing at 40° C./75% relative humidity (stability study, XRPD); conditions: for physical stability to stressing at 40° C./75% relative humidity (RH): 7 days
[3] = storage under ambient conditions (15° C. to 30° C.), form conversion; conditions: temperature of from 15° C. to 30° C.
Description: For Free Base Form E, Free Base Form F, Free Base Form G, Free Base Form H, and Free Base Form J: two different instruments were used for characterizing the materials by XRPD. Samples were analysed dry with a Malvern Panalytical Xpert Pro diffractometer, except for Free Base Form F. Free Base Form F was analysed using a Malvern Panalytical Empyrean diffractometer.
Napsylate Salt Form C was analysed by XRPD.

CN1CCN([C@@H]2CCCN(c3cnc(C(N)=O)c(Nc4ccc(C5CCN(CC6CCN(c7ccc(C(=O)N[C@H]8CCC(=O)NC8=O)nc7)CC6)CC5)cc4)n3)C2)C1=O [Free Base Form A]
Post-XRPD (100° C.) ([1]; listed as A): Free Base Form A

CN1CCN([C@@H]2CCCN(c3cnc(C(N)=O)c(Nc4ccc(C5CCN(CC6CCN(c7ccc(C(=O)N[C@H]8CCC(=O)NC8=O)nc7)CC6)CC5)cc4)n3)C2)C1=O [Free Base Form B]
Post-XRPD (150° C.) ([1]; listed as B): Free Base Form A

CN1CCN([C@@H]2CCCN(c3cnc(C(N)=O)c(Nc4ccc(C5CCN(CC6CCN(c7ccc(C(=O)N[C@H]8CCC(=O)NC8=O)nc7)CC6)CC5)cc4)n3)C2)C1=O [Free Base Form C]
Post-XRPD (150° C.) ([1]; listed as C): Free Base Form C

CN1CCN([C@@H]2CCCN(c3cnc(C(N)=O)c(Nc4ccc(C5CCN(CC6CCN(c7ccc(C(=O)N[C@H]8CCC(=O)NC8=O)nc7)CC6)CC5)cc4)n3)C2)C1=O [Free Base Form D]
Post-XRPD (100° C.) ([1]; listed as D): Free Base Form D

CN1CCN([C@@H]2CCCN(c3cnc(C(N)=O)c(Nc4ccc(C5CCN(CC6CCN(c7ccc(C(=O)N[C@H]8CCC(=O)NC8=O)nc7)CC6)CC5)cc4)n3)C2)C1=O [Free Base Form E]
physical stability to stressing at 40° C./75% relative humidity (RH) [2]: physically stable

CN1CCN([C@@H]2CCCN(c3cnc(C(N)=O)c(Nc4ccc(C5CCN(CC6CCN(c7ccc(C(=O)N[C@H]8CCC(=O)NC8=O)nc7)CC6)CC5)cc4)n3)C2)C1=O [Free Base Form F]
physical stability to stressing at 40° C./75% relative humidity (RH) [2]: not physically stable | physical stability to ambient conditions [3]: converted on drying at ambient conditions (including a temperature of from 15 °C to 30° C.) to Free Base Form J; also recorded: not physically stable

CN1CCN([C@@H]2CCCN(c3cnc(C(N)=O)c(Nc4ccc(C5CCN(CC6CCN(c7ccc(C(=O)N[C@H]8CCC(=O)NC8=O)nc7)CC6)CC5)cc4)n3)C2)C1=O [Free Base Form G]
physical stability to stressing at 40° C./75% relative humidity (RH) [2]: not physically stable

CN1CCN([C@@H]2CCCN(c3cnc(C(N)=O)c(Nc4ccc(C5CCN(CC6CCN(c7ccc(C(=O)N[C@H]8CCC(=O)NC8=O)nc7)CC6)CC5)cc4)n3)C2)C1=O [Free Base Form H]
physical stability to stressing at 40° C./75% relative humidity (RH) [2]: physically stable

CN1CCN([C@@H]2CCCN(c3cnc(C(N)=O)c(Nc4ccc(C5CCN(CC6CCN(c7ccc(C(=O)N[C@H]8CCC(=O)NC8=O)nc7)CC6)CC5)cc4)n3)C2)C1=O [Free Base Form J]
physical stability to stressing at 40° C./75% relative humidity (RH) [2]: physically stable

CN1CCN([C@@H]2CCCN(c3cnc(C(N)=O)c(Nc4ccc(C5CCN(CC6CCN(c7ccc(C(=O)N[C@H]8CCC(=O)NC8=O)nc7)CC6)CC5)cc4)n3)C2)C1=O [Napsylate Salt Form B]
physical stability to ambient conditions [3]: conversion to Napsylate Salt Form C

CN1CCN([C@@H]2CCCN(c3cnc(C(N)=O)c(Nc4ccc(C5CCN(CC6CCN(c7ccc(C(=O)N[C@H]8CCC(=O)NC8=O)nc7)CC6)CC5)cc4)n3)C2)C1=O [Succinate Salt Form B]
form after stressing at 40° C./75% relative humidity (RH) ([2]; 1 week (FIG. 72)): converted back to Succinate Salt Form A
